Laboratory results reported in PMC5374420, “In Search of Small Molecule Inhibitors Targeting the Flexible CK2 Subunit Interface” (Pharmaceuticals, 2017).
Where a SMILES comes first, the peptide text is derived from it. Bridges are numbered along the chain shown (N, C = ends).

What was measured:
CK2 holoenzyme = target: T1, CK2 holoenzyme (Homo sapiens, UniProt P68400); assay: CK2 kinase assay with CK2β-independent peptide substrate; type: biochemical; conditions: CK2 holoenzyme 100 nM, 15 min at 4 °C; at high TAT-Pc 13 concentrations
T1 construct: made in house
T1 sequence (P68400 whole entry): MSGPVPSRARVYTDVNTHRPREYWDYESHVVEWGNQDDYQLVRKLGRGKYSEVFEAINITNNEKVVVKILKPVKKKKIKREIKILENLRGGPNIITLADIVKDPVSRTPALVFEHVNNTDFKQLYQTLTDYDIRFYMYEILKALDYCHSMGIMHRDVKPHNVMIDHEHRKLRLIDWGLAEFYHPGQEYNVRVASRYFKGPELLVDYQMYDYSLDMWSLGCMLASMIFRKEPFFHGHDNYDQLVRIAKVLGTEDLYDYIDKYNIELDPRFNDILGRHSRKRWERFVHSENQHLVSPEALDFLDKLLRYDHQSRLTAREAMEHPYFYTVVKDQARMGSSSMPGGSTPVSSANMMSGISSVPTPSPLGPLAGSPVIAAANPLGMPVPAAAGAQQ
Method: Figure 4 Inhibitory activity of a TAT-Pc analogue in vitro. (A) CK2 holoenzyme (100 nM) was incubated in the presence of increasing concentrations of TAT-Pc 13 for 15 min at 4 °C. CK2 activity was then determined with CK2β-dependent or independent peptide substrates; (B) [^35S]-labeled CK2α was incubated with biotinylated MBP-CK2β immobilized on streptavidin coated plates (preformed complex) in the absence (1) or presence (2) of TAT-Pc 13. Alternatively, [^35S]-labeled CK2α was incubated with TAT-Pc 13 (3) or random TAT-Pc 13 (4) and then with immobilized biotinylated MBP-CK2β. After washing, the amount of [^35S]-labeled CK2α remaining in the complex was determined by radioactivity counting. Representative data shown from two independent experiments. Results are presented as mean ± s.d. of triplicates.
CK2 kinase assays were performed in a phosphorylation buffer containing recombinant CK2α (36 ng) or recombinant CK2 holoenzyme (50 ng) and a mixture containing 10 mM MgCl2 and 1 μCi of [γ-32P]ATP and 0.15 M NaCl in the presence of 0.2 mM of the CK2β-independent substrate […] [28] or the CK2β-dependent substrate […] [18]. […] Kinase reactions were terminated by the addition of 60 μL of 4% trichloroacetic acid and sample adsorption on phosphocellulose P81 paper, which were washed in 0.5% phosphoric acid and counted in a scintillation counter.

[1] = target: T2, CK2α/CK2β subunit interaction in MCF-10A cells (Homo sapiens, UniProt P68400); assay: In situ proximity ligation assay of CK2α and CK2β; type: cell-based; conditions: 50 µM, 6 h, WT MCF-10A cells; positive control 4.8 ± 1.5 dots/cell
T2 construct: endogenous in cells; host or cells: MCF-10A (WT)
T2 sequence (P68400 whole entry): as above
Method: (§1) Figure 7 Uptake and cellular effects of TAT-Pc 13. (A) kinetic of TAMRA-TAT-Pc 13 uptake in MCF-10A cells; (B) WT or CK2β-depleted MCF-10A cells were incubated with 50 µM TAT or TAT-Pc 13 for 8 h and the expression of CK2 subunits was evaluated by Western blot; (C) anti-CK2β immunoprecipitates were prepared from WT MCF-10A cells incubated with 50 µM TAT or TAT-Pc 13 for 2 h. Presence of CK2 subunits in the corresponding immunoprecipitates was determined by Western blot; (D) in situ proximity ligation images of MCF-10A cells incubated with 50 µM TAT (a,b,d) or TAT-Pc 13 (c) for 6 h. WT cells were incubated with CK2α antibody alone (a) or CK2α and CK2β antibodies (b,c). […]
PLA is an antibody-based method representing a reliable readout of molecular proximity of two antigens located on two distinct proteins. […] The fluorescent signal from each pair of PLA probes confirms a close proximity and not simply subcellular colocalization and can then be detected and quantified as fluorescent spots in microscopic images of the cells. […] No signal was detected in CK2β-depleted cells (panel d).
In situ PLAs were performed using a Duolink kit (Olink Bioscience, Uppsala, Sweden) according to the manufacturer’s instructions with some modifications. […] Images were observed using a Zeiss Apotome microscope and analyzed using a Zen Pro imaging software (Zeiss, Oberkochen, Germany). […]

[2] = target: T3, CK2α/CK2β interaction in MCF-10A cells (Homo sapiens, UniProt P68400); assay: CK2β immunoprecipitation from treated cells, Western blot of CK2α; type: cell-based; conditions: WT MCF-10A cells, 50 µM for 2 h, compared with TAT
T3 construct: endogenous in cells; host or cells: MCF-10A (WT)
T3 sequence (P68400 whole entry): as above
Method: To assess the cell-penetrating properties of TAT-Pc 13, we used a tetramethylrhodamine-conjugated TAT-Pc 13 analogue (TAMRA-TAT-Pc 13). The cellular uptake of this fluorescently labeled peptide was very rapid: only 2 min after incubation, the peptide was detectable in MCF-10A cells and plateauing after 5 min (Figure 7A). The impact of TAT-Pc 13 cell uptake on the expression of the CK2 subunits in WT and CK2β-depleted MCF-10A cells was evaluated by Western blot. […] We next evaluated the effect of TAT-Pc 13 on the CK2 subunit association using two independent strategies. First, CK2β was immunoprecipitated in extracts of MCF-10A cells treated with TAT or TAT-Pc 13 and the amount of CK2α recovered in the immunoprecipitates was analyzed by Western blot.
as §1, with “h.” for “h. WT cells were incubated with CK2α antibody alone (a) or CK2α and CK2β antibodies (b,c).”

`CC[C@H](C)[C@@H]1NC(=O)[C@H](CCCCN)NC(=O)[C@H](Cc2ccccc2)NC(=O)CNC(=O)[C@H](Cc2ccc(O)cc2)NC(=O)[C@H](CC(C)C)NC(=O)[C@H](CCCNC(=N)N)NC(=O)CNC(=O)CNC(=O)[C@@H](NC(=O)[C@H](CCC(N)=O)NC(=O)[C@@H]2CCCN2C(=O)[C@@H]2CCCN2C(=O)[C@H](CCCNC(=N)N)NC(=O)[C@H](CCCNC(=N)N)NC(=O)[C@H](CCCNC(=N)N)NC(=O)[C@H](CCC(N)=O)NC(=O)[C@H](CCCNC(=N)N)NC(=O)[C@H](CCCNC(=N)N)NC(=O)[C@H](CCCCN)NC(=O)[C@H](CCCCN)NC(=O)[C@H](CCCNC(=N)N)NC(=O)CN)CCCCNC(=O)CNC(=O)CNC(=O)[C@H](Cc2c[nH]cn2)NC1=O` [TAT-Pc 13] (H-GRKKRRQRRRPPQKGGRLYGFKIHGG; lactam 14-C; N-terminus assumed) was tested, and the CK2β-independent peptide phosphorylation (CK2 holoenzyme) was “significantly stimulated”, the “number of CK2α/CK2β interaction dots” value [1] was 2.2 ± 1.1 dots/cell and the “CK2α recovered in CK2β immunoprecipitates” value [2] was “significantly less CK2α”.
